This passage reports inhibition results from article PMC6934184, “Selective DNA-PKcs inhibition extends the therapeutic index of localized radiotherapy and chemotherapy” (The Journal of Clinical Investigation, 2019).

For this assay, the target named is T1, GSK3B (GSK3 beta) (Homo sapiens, UniProt P49841).
T1 construct: purchased Thermo Fisher Scientific (Life Technologies) SelectScreen
In words: SelectScreen Z'LYTE. Format: biochemical. In short, it runs like this:
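NU5455 was profiled across the SelectScreen Broad panel of kinase activity and binding assays. Z'LYTE reactions such as CSF1R ran at apparent Km ATP, while the Adapta CAMK1 assay used ATP listed as 10. Values are given as percent.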

T1 sequence (P49841 whole entry): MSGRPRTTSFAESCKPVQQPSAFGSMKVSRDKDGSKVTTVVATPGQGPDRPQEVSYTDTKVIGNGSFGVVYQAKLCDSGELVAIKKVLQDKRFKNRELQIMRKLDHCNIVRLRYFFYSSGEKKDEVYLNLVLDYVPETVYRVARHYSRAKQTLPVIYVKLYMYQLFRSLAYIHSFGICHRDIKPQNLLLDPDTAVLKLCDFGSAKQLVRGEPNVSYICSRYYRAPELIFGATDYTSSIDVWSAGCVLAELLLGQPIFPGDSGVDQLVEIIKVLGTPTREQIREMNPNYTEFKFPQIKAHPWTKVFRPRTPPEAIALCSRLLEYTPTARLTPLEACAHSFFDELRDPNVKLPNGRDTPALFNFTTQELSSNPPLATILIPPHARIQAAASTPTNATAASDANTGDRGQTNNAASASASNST

`CN(C(=O)CN1CCOCC1)c1ccc2sc3c(-c4cccc5c(=O)cc(N6CC7CCC(C6)O7)oc45)cccc3c2c1` [NU5455]: the inhibition – broadly, the change of the read-out against control, counted positive when it falls – at 1 µM was -2.5%.
